Test results taken from US20230085307A1, “PYRIDAZINONE COMPOUND AND HERBICIDE” (NISSAN CHEMICAL CORPORATION, priority 2019, published 2023).

Legend:
blackgrass [1] = assay: Test Example 5: herbicidal effect by foliage application, plastic box (Table 20, symbol J); format: in vivo, blackgrass (Alopecurus myosuroides); details: amount of applied herbicide 320 g/ha; foliage application after 14-day growth; evaluated three weeks after application
Method in brief: (§1)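 Plants were sown into sterilized diluvial soil under about 1.5 cm cover and kept in a greenhouse at 25° C. to 30° C. Fourteen days on, foliage received an even spray of the diluted emulsion. Herbicidal or crop effect was judged three weeks afterwards.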

blackgrass [2] = assay: Test Example 4: herbicidal effect by soil treatment (Table 19, symbol J); format: in vivo, blackgrass (Alopecurus myosuroides); details: amount of applied herbicide 320 g/ha
Method in brief: (§2)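 In this soil treatment, the formulated compound reached the seeds only through the soil: seeds were buried about 1.5 cm deep in sterilized diluvial soil, then the diluted emulsion was sprayed over the surface. After three weeks at 25° C. to 30° C. in a greenhouse, effects were graded on criteria from an earlier test.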

barnyard grass [3] = assay: Test Example 5: herbicidal effect by foliage application, plastic box (Table 20, symbol H); format: in vivo, barnyard grass (Echinochloa crus-galli); details: amount of applied herbicide 320 g/ha; foliage application after 14-day growth; evaluated three weeks after application
Method in brief: as §1

southern crabgrass [4] = assay: Test Example 4: herbicidal effect by soil treatment (Table 19, symbol F); format: in vivo, southern crabgrass (Digitaria ciliaris); details: amount of applied herbicide 320 g/ha
Method in brief: as §2

Japanese bulrush [5] = assay: Test Example 1: herbicidal activity, application before weed generation under submerged conditions (Table 16, symbol B); format: in vivo, Japanese bulrush (Schoenoplectus juncoides); details: amount of applied herbicide 320 g/ha
Method in brief: (§3)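 Submerged Wagner pots (alluvial soil, 4 cm water) sown with weed seeds and planted with 2.5-leaf rice seedlings; emulsifiable concentrate diluted in water applied to water surface on sowing day. Held in greenhouse at 25-30 °C; injury scored 0-5 by herbicidal rate after three weeks.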

barnyard grass [6] = assay: Test Example 3: herbicidal effect by foliage application, Wagner pot (Table 18, symbol H); format: in vivo, barnyard grass (Echinochloa crus-galli); details: 320 g/ha
Method in brief: (§4)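 Plants were sown in alluvial soil held under 0.1–0.5 cm standing water and grown 14 days in a greenhouse at 25–30 °C. An emulsifiable formulation, water-diluted to the set dose, was then sprayed onto the foliage, and effects were scored three weeks later using previously defined criteria.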

green foxtail [7] = assay: Test Example 4: herbicidal effect by soil treatment (Table 19, symbol G); format: in vivo, green foxtail (Setaria viridis); details: amount of applied herbicide 320 g/ha
Method in brief: as §2

rice flat sedge = assay: Test Example 3: herbicidal effect by foliage application, Wagner pot (Table 18, symbol E); format: in vivo, rice flat sedge (Cyperus iria); details: 320 g/ha
Method in brief: as §4

Italian ryegrass [8] = assay: Test Example 5: herbicidal effect by foliage application, plastic box (Table 20, symbol K); format: in vivo, Italian ryegrass (Lolium multiflorum); details: amount of applied herbicide 320 g/ha; foliage application after 14-day growth; evaluated three weeks after application
Method in brief: as §1

windgrass [9] = assay: Test Example 4: herbicidal effect by soil treatment (Table 19, symbol L); format: in vivo, windgrass (Apera spica-venti); details: amount of applied herbicide 320 g/ha
Method in brief: as §2

windgrass [10] = assay: Test Example 5: herbicidal effect by foliage application, plastic box (Table 20, symbol L); format: in vivo, windgrass (Apera spica-venti); details: amount of applied herbicide 320 g/ha; foliage application after 14-day growth; evaluated three weeks after application
Method in brief: as §1

velvetleaf [11] = assay: Test Example 5: herbicidal effect by foliage application, plastic box (Table 20, symbol M); format: in vivo, velvetleaf (Abutilon theophrasti); details: amount of applied herbicide 320 g/ha; foliage application after 14-day growth; evaluated three weeks after application
Method in brief: as §1

barnyard grass [12] = assay: Test Example 4: herbicidal effect by soil treatment (Table 19, symbol H); format: in vivo, barnyard grass (Echinochloa crus-galli); details: amount of applied herbicide 320 g/ha
Method in brief: as §2

redroot pigweed [13] = assay: Test Example 5: herbicidal effect by foliage application, plastic box (Table 20, symbol N); format: in vivo, redroot pigweed (Amaranthus retroflexus); details: amount of applied herbicide 320 g/ha; foliage application after 14-day growth; evaluated three weeks after application
Method in brief: as §1

oval-leafed pondweed [14] = assay: Test Example 1: herbicidal activity, application before weed generation under submerged conditions (Table 16, symbol C); format: in vivo, oval-leafed pondweed (Monochoria vaginalis); details: amount of applied herbicide 320 g/ha
Method in brief: as §3

Italian ryegrass [15] = assay: Test Example 4: herbicidal effect by soil treatment (Table 19, symbol K); format: in vivo, Italian ryegrass (Lolium multiflorum); details: amount of applied herbicide 320 g/ha
Method in brief: as §2

late watergrass [16] = assay: Test Example 1: herbicidal activity, application before weed generation under submerged conditions (Table 16, symbol A); format: in vivo, late watergrass (Echinochloa oryzicola); details: amount of applied herbicide 320 g/ha
Method in brief: as §3

lambsquarters [17] = assay: Test Example 4: herbicidal effect by soil treatment (Table 19, symbol O); format: in vivo, lambsquarters (Chenopodium album); details: amount of applied herbicide 320 g/ha
Method in brief: as §2

wild oat [18] = assay: Test Example 5: herbicidal effect by foliage application, plastic box (Table 20, symbol I); format: in vivo, wild oat (Avena fatua); details: amount of applied herbicide 320 g/ha; foliage application after 14-day growth; evaluated three weeks after application
Method in brief: as §1

redroot pigweed [19] = assay: Test Example 4: herbicidal effect by soil treatment (Table 19, symbol N); format: in vivo, redroot pigweed (Amaranthus retroflexus); details: amount of applied herbicide 320 g/ha
Method in brief: as §2

wild oat [20] = assay: Test Example 4: herbicidal effect by soil treatment (Table 19, symbol I); format: in vivo, wild oat (Avena fatua); details: amount of applied herbicide 320 g/ha
Method in brief: as §2

persian speedwell [21] = assay: Test Example 4: herbicidal effect by soil treatment (Table 19, symbol R); format: in vivo, Persian speedwell (Veronica persica); details: amount of applied herbicide 320 g/ha
Method in brief: as §2

green foxtail [22] = assay: Test Example 5: herbicidal effect by foliage application, plastic box (Table 20, symbol G); format: in vivo, green foxtail (Setaria viridis); details: amount of applied herbicide 320 g/ha; foliage application after 14-day growth; evaluated three weeks after application
Method in brief: as §1

chickweed [23] = assay: Test Example 4: herbicidal effect by soil treatment (Table 19, symbol P); format: in vivo, common chickweed (Stellaria media); details: amount of applied herbicide 320 g/ha
Method in brief: as §2

chickweed [24] = assay: Test Example 5: herbicidal effect by foliage application, plastic box (Table 20, symbol P); format: in vivo, common chickweed (Stellaria media); details: amount of applied herbicide 320 g/ha; foliage application after 14-day growth; evaluated three weeks after application
Method in brief: as §1

southern crabgrass [25] = assay: Test Example 5: herbicidal effect by foliage application, plastic box (Table 20, symbol F); format: in vivo, southern crabgrass (Digitaria ciliaris); details: amount of applied herbicide 320 g/ha; foliage application after 14-day growth; evaluated three weeks after application
Method in brief: as §1

persian speedwell [26] = assay: Test Example 5: herbicidal effect by foliage application, plastic box (Table 20, symbol R); format: in vivo, Persian speedwell (Veronica persica); details: amount of applied herbicide 320 g/ha; foliage application after 14-day growth; evaluated three weeks after application
Method in brief: as §1

lambsquarters [27] = assay: Test Example 5: herbicidal effect by foliage application, plastic box (Table 20, symbol O); format: in vivo, lambsquarters (Chenopodium album); details: amount of applied herbicide 320 g/ha; foliage application after 14-day growth; evaluated three weeks after application
Method in brief: as §1

Chinese sprangletop = assay: Test Example 3: herbicidal effect by foliage application, Wagner pot (Table 18, symbol D); format: in vivo, chinese sprangletop (Leptochloa chinensis); details: 320 g/ha
Method in brief: as §4

velvetleaf [28] = assay: Test Example 4: herbicidal effect by soil treatment (Table 19, symbol M); format: in vivo, velvetleaf (Abutilon theophrasti); details: amount of applied herbicide 320 g/ha
Method in brief: as §2

Japanese bulrush [29] = assay: Test Example 2: herbicidal activity, application during weed generation under submerged conditions (Table 17, symbol B); format: in vivo, Japanese bulrush (Schoenoplectus juncoides); details: AAH 320 g/ha; application during weed generation, submerged conditions
Protocol: (§5) [Test Example 2] Herbicidal Activity Test by Application during Weed Generation under Submerged Conditions After alluvial soil was placed into 1/10000 are of Wagner pot, water was poured and mixed to form a submerged condition having a water depth of 4 cm. Seeds of late watergrass, Japanese bulrush, and oval-leafed pondweed were sowed in a mixed manner in the aforementioned pot, and the pot was placed in a greenhouse at 25° C. to 30° C. for growth of the plants. When late watergrass, Japanese bulrush, and oval-leafed pondweed were grown to one leaf stage to two leaf stage, the emulsion agent of the compound of the present invention prepared according to Formulation Example 2 was diluted with water so as to achieve a predetermined herbicide amount, and the diluted emulsion agent was applied to the surface of the water. Three weeks after the herbicide application, the effect of the herbicide on each plant was evaluated according to the criteria of Test Example 1.

oval-leafed pondweed [30] = assay: Test Example 2: herbicidal activity, application during weed generation under submerged conditions (Table 17, symbol C); format: in vivo, oval-leafed pondweed (Monochoria vaginalis); details: AAH 320 g/ha; application during weed generation, submerged conditions
Protocol: as §5

late watergrass [31] = assay: Test Example 2: herbicidal activity, application during weed generation under submerged conditions (Table 17, symbol A); format: in vivo, late watergrass (Echinochloa oryzicola); details: AAH 320 g/ha; application during weed generation, submerged conditions
Protocol: as §5

SMILES: CCCC(=O)Oc1c(C)nn(C)c(=O)c1-c1c(-c2ccccc2OCC)sc2cc(Cl)c(Cl)cc12 [5-046]
- Herbicidal effect by foliage application, J: blackgrass (blackgrass [1]): 0 (Herbicidal rate of 5% or less (almost no effect))
- J: blackgrass, herbicidal effect grade (blackgrass [2]): 0 (Herbicidal rate of 5% or less (almost no effect))
- Herbicidal effect by foliage application, H: barnyard grass (barnyard grass [3]): 4 (Herbicidal rate of 70% or more and less than 90%)
- F: southern crabgrass, herbicidal effect grade (southern crabgrass [4]): 0 (Herbicidal rate of 5% or less (almost no effect))
- Herbicidal effect, B: Japanese bulrush (Japanese bulrush [5]): 3 (Herbicidal rate of 40% or more and less than 70%)
- herbicidal effect on barnyard grass (H) (barnyard grass [6]): 5 (Herbicidal rate of 90% or more (almost completely withered))
- G: green foxtail, herbicidal effect grade (green foxtail [7]): 0 (Herbicidal rate of 5% or less (almost no effect))
- herbicidal effect on rice flat sedge (E) (rice flat sedge): 5 (Herbicidal rate of 90% or more (almost completely withered))
- Herbicidal effect by foliage application, K: Italian ryegrass (Italian ryegrass [8]): 0 (Herbicidal rate of 5% or less (almost no effect))
- L: windgrass, herbicidal effect grade (windgrass [9]): 0 (Herbicidal rate of 5% or less (almost no effect))
- Herbicidal effect by foliage application, L: windgrass (windgrass [10]): 0 (Herbicidal rate of 5% or less (almost no effect))
- Herbicidal effect by foliage application, M: velvetleaf (velvetleaf [11]): 5 (Herbicidal rate of 90% or more (almost completely withered))
- H: barnyard grass, herbicidal effect grade (barnyard grass [12]): 0 (Herbicidal rate of 5% or less (almost no effect))
- Herbicidal effect by foliage application, N: redroot pigweed (redroot pigweed [13]): 5 (Herbicidal rate of 90% or more (almost completely withered))
- Herbicidal effect, C: oval-leafed pondweed (oval-leafed pondweed [14]): 0 (Herbicidal rate of 5% or less (almost no effect))
- K: Italian ryegrass, herbicidal effect grade (Italian ryegrass [15]): 0 (Herbicidal rate of 5% or less (almost no effect))
- Herbicidal effect, A: late watergrass (late watergrass [16]): 0 (Herbicidal rate of 5% or less (almost no effect))
- O: lambsquarters, herbicidal effect grade (lambsquarters [17]): 0 (Herbicidal rate of 5% or less (almost no effect))
- Herbicidal effect by foliage application, I: wild oat (wild oat [18]): 0 (Herbicidal rate of 5% or less (almost no effect))
- N: redroot pigweed, herbicidal effect grade (redroot pigweed [19]): 0 (Herbicidal rate of 5% or less (almost no effect))
- I: wild oat, herbicidal effect grade (wild oat [20]): 0 (Herbicidal rate of 5% or less (almost no effect))
- R: persian speedwell, herbicidal effect grade (persian speedwell [21]): 0 (Herbicidal rate of 5% or less (almost no effect))
- Herbicidal effect by foliage application, G: green foxtail (green foxtail [22]): 3 (Herbicidal rate of 40% or more and less than 70%)
- P: chickweed, herbicidal effect grade (chickweed [23]): 3 (Herbicidal rate of 40% or more and less than 70%)
- Herbicidal effect by foliage application, P: chickweed (chickweed [24]): 5 (Herbicidal rate of 90% or more (almost completely withered))
- Herbicidal effect by foliage application, F: southern crabgrass (southern crabgrass [25]): 3 (Herbicidal rate of 40% or more and less than 70%)
- Herbicidal effect by foliage application, R: persian speedwell (persian speedwell [26]): 4 (Herbicidal rate of 70% or more and less than 90%)
- Herbicidal effect by foliage application, O: lambsquarters (lambsquarters [27]): 3 (Herbicidal rate of 40% or more and less than 70%)
- herbicidal effect on Chinese sprangletop (D) (Chinese sprangletop): 3 (Herbicidal rate of 40% or more and less than 70%)
- M: velvetleaf, herbicidal effect grade (velvetleaf [28]): 0 (Herbicidal rate of 5% or less (almost no effect))

SMILES: Cc1cc2sc(-c3ccc(OC(F)(F)F)cc3)c(-c3c(O)c(C)nn(C)c3=O)c2cc1C [5-109]
- herbicidal effect rating, B: Japanese bulrush (Japanese bulrush [29]): 0 (Herbicidal rate of 5% or less (almost no effect))
- herbicidal effect rating, C: oval-leafed pondweed (oval-leafed pondweed [30]): 0 (Herbicidal rate of 5% or less (almost no effect))
- herbicidal effect rating, A: late watergrass (late watergrass [31]): 2 (Herbicidal rate of 20% or more and less than 40%)
